Results reported in patent US11617777B2, “Cytotoxic and anti-mitotic compounds, and methods of using the same” (ZYMEWORKS BC INC., priority 2013, dated 2023).

tested on: Jurkat cells; assay: Cytotoxicity of compounds, CellTiter-Glo; format: cell-based, Human; settings: Homo sapiens, Jurkat, Table 3; Cytotoxicity of Compounds on Jurkat Cells; read-out: EC50
Text: Cell lines used: Human T-cell leukemia cell line Jurkat (ATCC: TIB-152); HCC1954 (ATCC: CRL. 2338); Human Pancreatic cells lines: AsPC-1 (ATCC: CRL-1682), BxPC-3 (ATCC: CRL.1687), HPAF-II (ATCC: CRL.1997), MiaPaCa2 (ATCC: CRL.1420), PANC-1 (ATCC: CRL.1469), Capan-1 (ATCC: HTB-79), Capan-2 (ATCC: HTB-80) and the Human gastric carcinoma cell line NCI-N87 (ATCC: CRL. 5822); AML-193 (ATCC: CRL.9589), CCRF-CEM (ATCC: CCL-119), DU145 (ATCC: HTB-81), PC-3 (ATCC: CRL.1435), A-431 (ATCC: CRL.1555), HT-29 (ATCC: HTB-38), A-172 (ATCC: CRL.1620), NCI-H358 (ATCC: CRL.5807), A549 (ATCC: CCL-185), Colo-205 (ATCC: CCL-222), MDA-MB-231 (ATCC: HTB-26), OVCAR-3 (ATCC: HTB-161), OV-90 (ATCC: CRL.11732), OE19 (Sigma: 96071721), RT 112/84 (Sigma: 85061106).
On the day prior to adding compounds, HCC1954 AsPC-1, BxPC-3, HPAF-II, MiaPaCa2, PANC-1, Capan-1, Capan-2 and NCI-N87 cells were added to opaque-walled 96-well tissue culture-treated microtiter plates using complete growth medium at a density of 2500 cells/100 microlitre (uL) of medium. These adherant cell lines cells were incubated for one night at 37° C./5% CO2 to allow the cells to attach to the microtiter plate surface. On the day that compounds were added, Jurkat cells are added to separate 96-well microtiter plates at 2500 cells/100 uL using the same growth medium as HCC1954. Compound were first serially diluted using dimethyl sulfoxide, and then the prepared dilutions are added to complete growth medium at five-times the final concentration—compounds were then titrated 1:3, eight steps. A control with no compound (growth medium alone) was included on each microtiter plate in sextuplicate. The prepared compounds titrations were added (twenty-five uL/well) in triplicate. The cells and compound titrations were incubated at 37° C./5% CO2 for three nights. After the incubation, cell viability is measured using CellTiter-Glo® reagent by adding thirty uL of prepared CellTiter-Glo® to each assay well. The assay is incubated for at least twenty minutes in the dark prior to measuring emitted luminescence using a microplate luminometer (500 ms integration time). The collected relative luminescence units (RLU) are converted to % cytotoxicity using the Growth medium alone control mentioned above (% Cytotoxicity=1−[Well RLU/average medium alone control RLU]).
GraphPad Prism was used for generation of EC50 values using three parameter non-linear regression curve fitting.

Row | Structure (SMILES) | EC50 [nM]
1 | CN[C@H](C(=O)N[C@H](C(=O)N(C)[C@H](/C=C(\C)C(=O)NS(=O)(=O)c1cc(C(=O)OC)ccc1Cl)C(C)C)C(C)(C)C)C(C)(C)c1ccccc1 [Compound 74, methyl 4-chloro-3-(N—((S,E)-2,5-dimethyl-4-((S)—N,3,3-trimethyl-2-((S)-3-methyl-2-(methylamino)-3-phenylbutanamido)butanamido)hex-2-enoyl)sulfamoyl)benzoate] | 0.087
2 | CN[C@H](C(=O)N[C@H](C(=O)N(C)[C@H](/C=C(\C)C(=O)NS(=O)(=O)Cc1ccc(CNC(=O)C(F)(F)F)cc1)C(C)C)C(C)(C)C)C(C)(C)c1ccccc1 [Compound 76, (S,E)-2,5-dimethyl-N-(4-((2,2,2-trifluoroacetamido)methyl)benzylsulfonyl)-4-((S)—N,3,3-trimethyl-2-((S)-3-methyl-2-(methylamino)-3-phenylbutanamido)butanamido)hex-2-enamide] | 0.328
3 | CN[C@H](C(=O)N[C@H](C(=O)N(C)[C@H](/C=C(\C)C(=O)NS(=O)(=O)c1ccc(CNC(=O)C(F)(F)F)cc1)C(C)C)C(C)(C)C)C(C)(C)c1ccccc1 [Compound 84, (S,E)-2,5-dimethyl-N-(4-((2,2,2-trifluoroacetamido)methyl)phenylsulfonyl)-4-((S)—N,3,3-trimethyl-2-((S)-3-methyl-2-(methylamino)-3-phenylbutanamido)butanamido)hex-2-enamide] | 1.39
4 | CN[C@H](C(=O)N[C@H](C(=O)N(C)[C@H](/C=C(\C)C(=O)NS(=O)(=O)c1ccccc1NC(=O)C(F)(F)F)C(C)C)C(C)(C)C)C(C)(C)c1ccccc1 [Compound 97, (S,E)-2,5-dimethyl-N-(2-(2,2,2-trifluoroacetamido)phenylsulfonyl)-4-((S)—N,3,3-trimethyl-2-((S)-3-methyl-2-(methylamino)-3-phenylbutanamido)butanamido)hex-2-enamide] | 1.62

same assay, conditions: Homo sapiens, Jurkat, Table 6; Compound Cytotoxicity on Jurkat; read-out: EC50

Row | Structure (SMILES) | EC50 [nM]
5 | CN[C@H](C(=O)N[C@H](C(=O)N(C)[C@H](/C=C(\C)C(=O)NS(=O)(=O)CCc1ccc([N+](=O)[O-])cc1)C(C)C)C(C)(C)C)C(C)(C)c1ccccc1 [Compound 73, (S,E)-2,5-dimethyl-N-(4-nitrophenethylsulfonyl)-4-((S)—N,3,3-trimethyl-2-((S)-3-methyl-2-(methylamino)-3-phenylbutanamido)butanamido)hex-2-enamide] | 2.68
6 | CN[C@H](C(=O)N[C@H](C(=O)N(C)[C@H](/C=C(\C)C(=O)NS(=O)(=O)Cc1ccccc1)C(C)C)C(C)(C)C)C(C)(C)c1ccc(-c2ccc(OC)cc2)cc1 [Compound 88, (S,E)-N-(benzylsulfonyl)-4-((S)-2-((S)-3-(4′-methoxybiphenyl-4-yl)-3-methyl-2-(methylamino)butanamido)-N,3,3-trimethylbutanamido)-2,5-dimethylhex-2-enamide] | 0.641
7 | CN[C@H](C(=O)N[C@H](C(=O)N(C)[C@H](/C=C(\C)C(=O)NS(=O)(=O)Cc1ccccc1)C(C)C)C(C)(C)C)C(C)(C)c1ccc(OC)cc1 [Compound 91, (S,E)-N-(benzylsulfonyl)-4-((S)-2-((S)-3-(4-methoxyphenyl)-3-methyl-2-(methylamino)butanamido)-N,3,3-trimethylbutanamido)-2,5-dimethylhex-2-enamide] | 0.109
8 | CN[C@@H](C(=O)N[C@H](C(=O)N(C)[C@H](/C=C(\C)C(=O)NS(=O)(=O)Cc1ccccc1)C(C)C)C(C)(C)C)C(C)(C)c1cccc(OC)c1 [Compound 92, (S,E)-N-(benzylsulfonyl)-4-((S)-2-((R)-3-(3-methoxyphenyl)-3-methyl-2-(methylamino)butanamido)-N,3,3-trimethylbutanamido)-2,5-dimethylhex-2-enamide] | 0.485
9 | CN[C@H](C(=O)N[C@H](C(=O)N(C)[C@H](/C=C(\C)C(=O)NS(=O)(=O)Cc1ccccc1)C(C)C)C(C)(C)C)C(C)(C)c1cccc(OC)c1 [Compound 93, (S,E)-N-(benzylsulfonyl)-4-((S)-2-((S)-3-(3-methoxyphenyl)-3-methyl-2-(methylamino)butanamido)-N,3,3-trimethylbutanamido)-2,5-dimethylhex-2-enamide] | 0.196
10 | CN[C@H](C(=O)N[C@H](C(=O)N(C)[C@H](/C=C(\C)C(=O)NS(=O)(=O)Cc1ccccc1)C(C)C)C(C)(C)C)C(C)(C)c1ccc(OCCO)cc1 [Compound 94, (S,E)-N-(benzylsulfonyl)-4-((S)-2-((S)-3-(4-(2-hydroxyethoxy)phenyl)-3-methyl-2-(methylamino)butanamido)-N,3,3-trimethylbutanamido)-2,5-dimethylhex-2-enamide] | 1.67
11 | CN[C@H](C(=O)N[C@H](C(=O)N(C)[C@H](/C=C(\C)C(=O)NS(=O)(=O)Cc1ccccc1)C(C)C)C(C)(C)C)C(C)(C)c1ccc(OCCSC(C)=O)cc1 [Compound 95, S-2-(4-((S)-4-((S)-1-(((S,E)-2,5-dimethyl-6-oxo-6-(benzylsulfonamido)hex-4-en-3-yl)(methyl)amino)-3,3-dimethyl-1-oxobutan-2-ylamino)-2-methyl-3-(methylamino)-4-oxobutan-2-yl)phenoxy)ethylethanethioate] | 0.288
12 | CN[C@H](C(=O)N[C@H](C(=O)N(C)[C@H](/C=C(\C)C(=O)NS(=O)(=O)Cc1ccccc1)C(C)C)C(C)(C)C)C(C)(C)c1ccc(OCCN)cc1 [Compound 96, (S,E)-4-((S)-2-((S)-3-(4-(2-aminoethoxy)phenyl)-3-methyl-2-(methylamino)butanamido)-N,3,3-trimethylbutanamido)-N-(benzylsulfonyl)-2,5-dimethylhex-2-enamide] | 10.3
13 | CN[C@H](C(=O)N[C@H](C(=O)N(C)[C@H](/C=C(\C)C(=O)NS(=O)(=O)c1ccccc1NC(=O)C(F)(F)F)C(C)C)C(C)(C)C)C(C)(C)c1ccccc1 [Compound 97, (S,E)-2,5-dimethyl-N-(2-(2,2,2-trifluoroacetamido)phenylsulfonyl)-4-((S)—N,3,3-trimethyl-2-((S)-3-methyl-2-(methylamino)-3-phenylbutanamido)butanamido)hex-2-enamide] | 0.307
14 | CN[C@H](C(=O)N[C@H](C(=O)N(C)[C@H](/C=C(\C)C(=O)NS(=O)(=O)c1ccccc1N)C(C)C)C(C)(C)C)C(C)(C)c1ccccc1 [Compound 98, (S,E)-N-(2-aminophenylsulfonyl)-2,5-dimethyl-4-((S)—N,3,3-trimethyl-2-((S)-3-methyl-2-(methylamino)-3-phenylbutanamido)butanamido)hex-2-enamide] | 0.077
15 | CN[C@H](C(=O)N[C@H](C(=O)N(C)[C@H](/C=C(\C)C(=O)NS(=O)(=O)Cc1cccc(C(F)(F)F)c1)C(C)C)C(C)(C)C)C(C)(C)c1ccccc1 [Compound 102, (S,E)-2,5-dimethyl-N-(3-(trifluoromethyl)benzylsulfonyl)-4-((S)—N,3,3-trimethyl-2-((S)-3-methyl-2-(methylamino)-3-phenylbutanamido)butanamido)hex-2-enamide] | 0.289
16 | CN[C@H](C(=O)N[C@H](C(=O)N(C)[C@H](/C=C(\C)C(=O)NS(=O)(=O)Cc1cccc(OC(F)(F)F)c1)C(C)C)C(C)(C)C)C(C)(C)c1ccccc1 [Compound 103, (S,E)-2,5-dimethyl-N-(3-(trifluoromethoxy)benzylsulfonyl)-4-((S)—N,3,3-trimethyl-2-((S)-3-methyl-2-(methylamino)-3-phenylbutanamido)butanamido)hex-2-enamide] | 0.209
17 | CN[C@H](C(=O)N[C@H](C(=O)N(C)[C@H](/C=C(\C)C(=O)NS(=O)(=O)Cc1ccc(Cl)c(Cl)c1)C(C)C)C(C)(C)C)C(C)(C)c1ccccc1 [Compound 104, (S,E)-N-(3,4-dichlorobenzylsulfonyl)-2,5-dimethyl-4-((S)—N,3,3-trimethyl-2-((S)-3-methyl-2-(methylamino)-3-phenylbutanamido)butanamido)hex-2-enamide] | 0.272
18 | CN[C@H](C(=O)N[C@H](C(=O)N(C)[C@H](/C=C(\C)C(=O)NS(=O)(=O)Cc1ccccc1C#N)C(C)C)C(C)(C)C)C(C)(C)c1ccccc1 [Compound 105, (S,E)-N-(2-cyanobenzylsulfonyl)-2,5-dimethyl-4-((S)—N,3,3-trimethyl-2-((S)-3-methyl-2-(methylamino)-3-phenylbutanamido)butanamido)hex-2-enamide] | 0.731
19 | CCc1cc(N)ccc1S(=O)(=O)NC(=O)/C(C)=C/[C@H](C(C)C)N(C)C(=O)[C@@H](NC(=O)[C@@H](NC)C(C)(C)c1ccccc1)C(C)(C)C [Compound 107, (S,E)-N-(4-amino-2-ethylphenylsulfonyl)-2,5-dimethyl-4-((S)—N,3,3-trimethyl-2-((S)-3-methyl-2-(methylamino)-3-phenylbutanamido)butanamido)hex-2-enamide] | 0.043

same assay, conditions: Homo sapiens, Jurkat, Table 7; Cytotoxicity on Jurkat; read-out: EC50

Row | Structure (SMILES) | EC50 [nM]
20 | CCc1cc(N)ccc1S(=O)(=O)NC(=O)/C(C)=C/[C@H](C(C)C)N(C)C(=O)[C@@H](NC(=O)[C@@H](NC)C(C)(C)c1ccccc1)C(C)(C)C [Compound 107, (S,E)-N-(4-amino-2-ethylphenylsulfonyl)-2,5-dimethyl-4-((S)—N,3,3-trimethyl-2-((S)-3-methyl-2-(methylamino)-3-phenylbutanamido)butanamido)hex-2-enamide] | 0.043

same assay, conditions: Table 6; Compound Cytotoxicity on Jurkat; read-out: EC50

Row | Structure (SMILES) | EC50 [nM]
21 | CN[C@H](C(=O)N[C@H](C(=O)N(C)[C@H](/C=C(\C)C(=O)NS(=O)(=O)Cc1ccccc1C#N)C(C)C)C(C)(C)C)C(C)(C)c1ccccc1 [Compound 105, (S,E)-N-(2-cyanobenzylsulfonyl)-2,5-dimethyl-4-((S)—N,3,3-trimethyl-2-((S)-3-methyl-2-(methylamino)-3-phenylbutanamido)butanamido)hex-2-enamide] | 0.753
